The values below come from patent US20040116523A1, “Use of c4-c10 acids for preventing gram-negative bacterial infections” (priority 2000, published 2004).

Structures are written as SMILES.

Test [1] deals with sipB′-lacZ fusion (S. typhi strain Ty277). As to the kind of experiment: β-galactosidase activity of the sipB′-lacZ fusion in favourable LB medium. The class given is cell-based. As for the experimental part:
(§1) The favourable LB medium (high osmolarity and concentration of Ca^2+ions) was defined as being the standard LB medium modified so as to have a final NaCl concentration of 300 mM and a final Ca concentration of 5 mM.
(§2) Each of the strains described above was cultured at 37° C. on agar or in TCS broth. The P-galactosidase activity was determined using 4-methyl-umbelliferyl-p-D-galactopyranoside sold by the company Sigma, according to the technique of Klarsfeld et al. (Mol. Mibrobiol., 1994, 13, 585-597). The results, expressed in P-galactosidase units (fluorescence per hour and per OD600), represent the mean of the values obtained in at least three independent experiments. The standard deviations were less than 10% of the values presented.
For this, the S. typhi strains Ty267, Ty272 and Ty277, which carry the iagA′-lacZ, invF′-lacZ and sipB′-lacZ fusions, respectively, (see Table I), were cultured in the favourable LB or unfavourable LB medium.
The action of these two compounds on the expression of the iagA′-lacZ, invF′-lacZ and sipB′-lacZ fusions was studied by measuring the β-galactosidase activity expressed by these fusions as a function of the time of culturing (samples removed every two hours).

Another test has as its system S. typhimurium C52. As to the kind of experiment: Splenic colonization of C57Bl/6 mice infected orally with S. typhimurium C52. It is filed as in vivo. As for the experimental part:
The 5-6-week-old female C57Bl/6 mice used in the context of this experiment originated from the IFFA-CREDO breeding centre (LArbresle, France).
(§3) They were infected orally in the following way. The Salmonella strains were cultured in TCS broth for 18 hours at 37° C. with shaking (200 rpm). This culture was then adjusted to […] (in the stationary growth phase, 1 OD600 =1.5 ×10^9 bacteria/ml), and then the number of viable bacteria was controlled by counting on TCS agar.
(§4) On the day of infection (DO), the drinking-water bottles of the mice were replaced with bottles containing 100 ml of drinking water to which the required number of bacteria had been added.
(§5) After infection for 24 hours ([…]), the bottles containing the contaminated drinking water were replaced with bottles containing uncontaminated drinking water.
(§6) Seven days after infection (D+7), the spleens of the mice infected in this way were removed and homogenized separately in 1 ml of physiological saline containing 0.7% of NaCl.
(§7) The number of viable bacteria per spleen was determined by plating out dilutions of the homogenate, onto TCS agar.
The effect of the composition of the drinking water on the splenic colonization by Salmonella was estimated using the Student's t test.
The S. typhimurium strain C52 was used to infect C57Bl/6 mice orally.
On this figure, the number of viable bacteria is given as the mean (log10) of the values ± the standard deviation. […]

Another test concerns Vibrio cholerae. The settings on record: 1.25 g/l; cited from earlier work.
The test system of a further test is S. typhi strain Ty2. In words: Mobility by the U-tube culturing technique. It is filed as cell-based. To be noted: U tube supplemented with 5 mM. Here is the method: The mobility of each strain was studied using the U-tube culturing technique (Popoff and Le Minor, Guide pour la preparation des serum anti-Salmonella (Guide for preparing salmonella antisera], 1997). When necessary, the culture media were supplemented with chloramphenicol (Cm) at 15 μg/ml.

Test [2] relates to iagA′-lacZ fusion (S. typhi strain Ty267). As to the kind of experiment: β-galactosidase activity of the iagA′-lacZ fusion in favourable LB medium. It is filed as cell-based. To be noted: fatty acid as sodium salt, 5 mM in favourable LB medium, 6 hours at 37° C.; control 22022 ± 1177. As for the experimental part: as §1
Each of the strains described above was cultured at 37° C. on agar or in TCS broth. The P-galactosidase activity was determined using 4-methyl-umbelliferyl-p-D-galactopyranoside sold by the company Sigma, according to the technique of Klarsfeld et al. (Mol. Mibrobiol., 1994, 13, 585-597). The results, expressed in P-galactosidase units (fluorescence per hour and per OD600), represent the mean of the values obtained in at least three independent experiments. The standard deviations were less than 10% of the values presented. […]
The β-galactosidase activity of the iagA′-lacZ fusion was measured after incubation for 6 hours at 37° C. with shaking (200 rpm).
The S. typhi Ty267 strain (iagA′-lacZ fusion) was seeded into favourable LB medium and into favourable LB medium containing the fatty acid to be tested, in the form of its sodium salt, at the final concentration of 5 mM.

For test [3] the test system is unchanged. The description is as above. The class given is cell-based.
A further test concerns Salmonellae. As to the kind of experiment: Bactericidal or bacteriostatic effect on the Salmonellae at neutral pH. It is filed as cell-based, Salmonella.
In test [4] the test system is Gram-positive or Gram-negative microorganisms. The settings on record: acid pH (free acid form); cited from earlier work.
For another test, the system named is S. dublin 5917. As to the kind of experiment: Splenic colonization of C57Bl/6 mice infected orally with S. dublin 5917. The settings on record: 50 mM in drinking water pH 7.2-7.3; 10^7 bacteria per animal orally; distilled water 7.7 ± 0.4. The class given is in vivo. Here is the method:
as §3, §4, §5, §6, §7
The S. dublin strain 5917 (Coynault & Norel, Microb. Pathog., 1999, 26, 299-305) and S. enteritidis strain LAS (Thorns et al., Microb. Pathog., 1996, 20, 235-246) were used to infect C57B1/6 mice orally at the dose of 10^7 bacteria per animal.

Test [5] concerns enteropathogenic and enterotoxigenic E. coli. To be noted: 1.25 g/l; cited from earlier work.
In a further test the test system is Shigella sonnei. To be noted: 1.25 g/l; cited from earlier work.
For another test, the system named is S. typhi. The settings on record: 1.25 g/l; cited from earlier work.
The subject of test [6] is Gram-positive or Gram-negative bacteria. The settings on record: 7.8 mM, in vitro; cited from earlier work.
The subject of test [7] is tviB′-lacZ fusion (S. typhi strain Ty266). As to the kind of experiment: β-galactosidase activity of the tviB′-lacZ fusion (specificity control). It is filed as cell-based. To be noted: 5 mM in favourable LB medium. As for the experimental part: as §2
The tviB gene has been characterized in S. typhi, and it encodes a GDP-dehydrogenase involved in the biosynthesis of the Vi antigen, which is the capsular polysaccharide of the typhus bacillus (Waxin et al., Res. Microbiol., 1993, 144, 363-371).
The results are reported on FIG. 4, in which it is seen that samples were taken every two hours in order to measure the OD600 (corresponding to the open symbols) and in order to determine the β-galactosidase activity (corresponding to the solid symbols).

The mark [8] stands for this setting: concentration greater than or equal to 2.5 mM, favourable LB medium.

With `CCCCCCCC(=O)[O-].[Na+]` [sodium caprylate], the “β-galactosidase activity expressed by the sipB′-lacZ fusion as % of that in favourable LB medium without the substance” value in [1] (1 mM in favourable LB medium) is ~20%. Moreover, the “expression of the sipB gene (sipB′-lacZ fusion)” value in test [1] (setting [8]) is given as “very strongly represses”. Besides, the “Number of viable bacteria in the spleen (mean log10)” value in the test with S. typhimurium C52 (5 mM in drinking water, infectious dose 5 × 10^7 bacteria) was 6.9 ± 0.5 log10; in the test on S. typhimurium C52 (5 mM in drinking water, infectious dose 10^7 bacteria) it was 6.8 ± 0.2 log10; in the test with S. typhimurium C52 (10 mM in drinking water, infectious dose 5 × 10^7 bacteria) it was 6.5 ± 0.4 log10; in the test with S. typhimurium C52 (10 mM in drinking water, infectious dose 10^7 bacteria) it was 6.5 ± 1.4 log10; in the test with S. typhimurium C52 (50 mM in drinking water, infectious dose 10^7 bacteria, distilled water 7.2 ± 0.3), 2.3 ± 0.4 log10. Besides, the “factor of decrease of the bacterial load in the spleen” value in the test on S. typhimurium C52 (50 mM in drinking water from two days before infection, 5 × 10^7 bacteria, seventh day of infection) is listed as “approximately 1 000”. Besides, the “protective effect (in words)” value in the test on S. typhimurium C52 (5 or 10 mM in the drinking water, whatever the infectious dose) is given as “no longer has a significant protective effect”. Further, the “bactericidal activity in vitro on Vibrio cholerae” value in the test with Vibrio cholerae is “no bactericidal activity”. Also, the “mobility of the Ty2 strain” value in the test on S. typhi strain Ty2 is “same mobility”. Also, in test [2], the “β-Galactosidase activity of the iagA′-lacZ fusion (Table VII)” value is listed as 445 ± 69 β-galactosidase units. Also, the “β-galactosidase activity expressed by the iagA′-lacZ fusion as % of that in favourable LB medium without the substance” value in [3] (1 mM in favourable LB medium) was ~20%. For the same compound, the “expression of the iagA gene (iagA′-lacZ fusion)” value in test [3] (setting [8]) is reported as “very strongly represses”. Besides, the “bactericidal or bacteriostatic effect on the Salmonellae” value in the test with Salmonellae is reported as “none of these compounds has any significant bactericidal or bacteriostatic effect”. Moreover, the “bactericidal activity on a great variety of Gram-positive or Gram-negative microorganisms” value in [4] is “bactericidal activity”. Moreover, in the test on S. dublin 5917, the “Number of viable bacteria in the spleen (mean in log10)” value turned out to be 2.1 ± 0.2 log10. Moreover, the “bactericidal activity in vitro on enteropathogenic and enterotoxigenic E. coli” value in test [5] is “no bactericidal activity”. For the same compound, in the test with Shigella sonnei, the “bactericidal activity in vitro on Shigella sonnei” value is “no bactericidal activity”. For the same compound, in the test on S. typhi, the “bactericidal activity in vitro on S. typhi” value was “no bactericidal activity”. Besides, the “bacteriostatic or bactericidal effect on Gram-positive or Gram-negative bacteria” value in test [6] is “no bacteriostatic or bactericidal effect”. Further, the “effect on the expression of the tviB′-lacZ fusion” value in test [7] was “no significant effect”.
